Results: US20030049287A1, “Catechol oximes and their use in cosmetic and dermatological preparations” (priority 1999, published 2003)

Experiments:
[1] = DPPH test, activity as free-radical scavenger; assay type: biochemical; conditions: DPPH 100 μmol/l in methanol, absorption at 515 nm
Description: The activity of the illustrative compounds as in examples 7 to 13 as free-radical scavengers was compared with the conventional free-radical scavenger and two examples from WO 95 01,157. For this, the DPPH (1,1-diphenyl-2-picryl-hydrazyl) test was used to eliminate free radicals.
DPPH was dissolved in methanol to a concentration of 100 μmol/l. A series of dilutions of the illustrative compounds, vitamin C, α-tocopherol and dibutylhydroxytoluene were prepared in methanol. Methanol was used as the control. 2500 μl of the DPPH solution were mixed with 500 μl of each test solution, and the decrease in the absorption at 515 nm was read off until the decrease was less than 2% per hour. The activity of the test substances as free-radical scavengers was calculated according to the following equation:
Activity as free-radical scavenger (%)=100−(absorption of the test compounds)/(absorption of the control)×100.
The activity of the free-radical scavengers (%) in a series of dilutions of test compounds was used to calculate, for each test compound, the effective relative concentration EC50 (based on the initially present concentration of DPPH, EC=c (test compound)/c(DPPH)) of a test compound at which 50% of the DPPH free radical had been eliminated.

[2] = Rancimat accelerated autoxidation of lipids by air, soybean oil; conditions: antioxidative index = IP(with test solution)/IP(control sample), soybean oil purified over alumina, 0.05% test substance
Description: (§1) The activity of the illustrative compounds according to Examples 7 to 13 as antioxidants was compared with the conventional antioxidants and two examples from WO 95 01,157. The test system used was the accelerated autoxidation of lipids by air with or without antioxidant using the Rancimat apparatus (Rancimat is a registered trademark of Metrohm AG, Herisau, Switzerland).
(§2) The illustrative compounds, vitamin C, α-tocopherol and dibutyihydroxytoluene were dissolved in methanol or acetone and 100 μl of each test solution were added to a prepared oil sample of 3 g. In a control sample only solvent was added. A constant stream of dry air (20 l/h) was bubbled through the heated oil sample containing the test solution, and the volatile oxidation products (predominantly short-chain fatty acids such as formic acid or acetic acid) were collected in a receiver containing water. The conductivity of this aqueous solution was measured continuously and documented. The oxidation of (unsaturated) fats proceeds here only very slowly for a period of time and then suddenly increases greatly. The time to the increase is referred to as the induction period (IP).
(§3) The antioxidative index (AOI) was obtained according to the following equation:
(§4) AOI=IP(with test solution)/IP(control sample).

[3] = Rancimat accelerated autoxidation of lipids by air, squalene; conditions: antioxidative index = IP(with test solution)/IP(control sample), squalene purified over alumina, stabilized with 1 ppm α-tocopherol, 0.005% test substance
Description: as §1, §2, §3, §4
The results for the experiment at 80° C. in squalene that was purified over alumina grade N and stabilized with 1 ppm of α-tocopherol are shown in table 4: […]

SMILES	EC50 (effective relative concentration, c(test compound)/c(DPPH), at which 50% of the DPPH free radical had been eliminated) [1]	AOI in soybean oil at 100° C. with 0.05% of test substance [2]	AOI in squalene at 80° C. with 0.005% of test substance [3]	melting point
CC(=NO)c1ccc(O)c(O)c1 [Example 8, 3,4-Dihydroxyacetophenone oxime]	0.073 mol/mol	16.6	95	
CCON=C(C)c1ccc(O)c(O)c1 [Example 12, 3,4-Dihydroxyacetophenone O-ethyloxime]	0.298 mol/mol	15.2	65	
CC(=NO)c1ccccc1O [o-Hydroxyacetophenone oxime, reference compound]	>3.0 mol/mol	0.9	1.6	
Cc1c(C)c2c(c(C)c1O)CC[C@@](C)(CCC[C@H](C)CCC[C@H](C)CCCC(C)C)O2 [α-Tocopherol, reference compound]	0.250 mol/mol	5.1	39	
O=C1O[C@H]([C@@H](O)CO)C(O)=C1O [Vitamin C, reference compound]	0.270 mol/mol	1.2	0.7	
Cc1ccc(CON=Cc2ccc(O)c(O)c2)cc1 [Example 11, 3,4-Dihydroxybenzaldehyde O-(4-methylbenzyl)oxime]	0.131 mol/mol	14.1	50	85 to 86 °C
CCON=Cc1ccc(O)c(O)c1 [Example 10, 3,4-Dihydroxybenzaldehyde O-ethyloxime]	0.156 mol/mol	17.3	85	< 23 °C
ON=Cc1cc(O)c(O)c(O)c1 [Example 9, 3,4,5-Trihydroxybenzaldehyde oxime]	0.090 mol/mol	20.9	150	177 °C (dec.)
CCON=Cc1cc(O)c(O)c(O)c1 [Example 13, 3,4,5-Trihydroxybenzaldehyde O-ethyloxime]	0.132 mol/mol	17.2	126	80 °C
ON=Cc1ccc(O)c(O)c1 [Example 7, 3,4-Dihydroxybenzaldehyde oxime]	0.053 mol/mol	15.8	70	143 °C (dec.)
Cc1cc(C(C)(C)C)c(O)c(C(C)(C)C)c1 [Dibutylhydroxytoluene, reference compound]	0.240 mol/mol	4.8	38	
